Experimental data: patent US12091411B2, “IRAK degraders and uses thereof” (Kymera Therapeutics, Inc., priority 2022, dated 2024)
Read-outs that look alike come from different tables or passages of the source.

Biological target: T1, IRAK4 (Homo sapiens, UniProt Q9NWZ3)
T1 construct: Degradation of IRAK4 in OCI-LY10 was quantitatively measured using Meso Scale Discovery technology; endogenous in cells; host or cells: OCI-LY10
T1 sequence (Q9NWZ3 1-460): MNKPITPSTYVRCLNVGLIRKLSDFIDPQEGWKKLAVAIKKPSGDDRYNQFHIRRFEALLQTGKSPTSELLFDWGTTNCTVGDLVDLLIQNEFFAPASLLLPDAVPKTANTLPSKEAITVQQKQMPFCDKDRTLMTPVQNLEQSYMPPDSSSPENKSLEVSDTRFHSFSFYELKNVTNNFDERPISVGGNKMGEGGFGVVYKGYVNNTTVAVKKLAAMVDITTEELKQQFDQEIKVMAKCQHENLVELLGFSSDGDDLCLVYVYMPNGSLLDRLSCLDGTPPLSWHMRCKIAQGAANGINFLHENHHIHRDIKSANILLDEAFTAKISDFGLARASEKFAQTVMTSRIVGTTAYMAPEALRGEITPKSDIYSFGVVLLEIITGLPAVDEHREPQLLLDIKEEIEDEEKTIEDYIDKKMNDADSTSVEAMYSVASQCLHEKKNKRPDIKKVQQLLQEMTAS
Assay: IRAK4 MSD Degradation in OCI-LY10
Assay type: cell-based
Conditions: OCI-LY10 cells, MSD
Procedure, shortened: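 OCI-LY10 cells exposed to 8-point 1:3 compound series (top 1 to 10 μM) for 4 to 24 h at 37 °C, 5% CO2. Lysate IRAK4 quantified by MSD sandwich immunoassay. DC50 from three-parameter logistic fit, binned A (<0.01 μM) to D (>0.2 μM or not tested).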

[1] = 4 hrs incubation, read-out: IRAK4 degradation in OCI-LY10 at 4 hrs: DC50
[2] = 24 hrs incubation, read-out: IRAK4 degradation in OCI-LY10 at 24 hrs: DC50

Structure (SMILES) | DC50 [1] | DC50 [2]
Cn1c(=O)n(C2CCC(=O)NC2=O)c2cccc(N3CCN(CC4COC5(C4)CN(C[C@H]4CC[C@H](n6cc7cc(NC(=O)c8cccc(C(F)(F)F)n8)c(C(C)(C)O)cc7n6)CC4)C5)CC3)c21 (stereo partly drawn) [I-663] | > 200 nM | > 200 nM
Cn1c(=O)n(C2CCC(=O)NC2=O)c2cccc(C3CCN(CC4COC5(C4)CN(C[C@H]4CC[C@H](n6cc(NC(=O)c7cnn8ccc(N9C[C@H]%10C[C@@H]9CO%10)nc78)c(C(F)F)n6)CC4)C5)CC3)c21 (stereo partly drawn) [I-664] | > 200 nM | > 200 nM
Cn1c(=O)n(C2CCC(=O)NC2=O)c2cccc(N3CCN(CC4COC5(C4)CN(C[C@H]4CC[C@H](n6cc7cc(NC(=O)c8cccc(C(F)(F)F)n8)ccc7n6)CC4)C5)CC3)c21 (stereo partly drawn) [I-665] | > 200 nM | 
Cn1c(=O)n(C2CCC(=O)NC2=O)c2cccc(N3CC4(CCN(C[C@H]5CC[C@H](n6cc7cc(NC(=O)c8cccc(C(F)(F)F)n8)ncc7n6)CC5)CC4(F)F)C3)c21 (stereo partly drawn) [I-668] | > 200 nM | 10 to 100 nM
C[C@H]1CN(c2ccn3ncc(C(=O)Nc4cn([C@H]5CC[C@H](CN6CCN(CC7CN(c8cccc9c8n(C)c(=O)n9C8CCC(=O)NC8=O)C7)CC6)CC5)nc4C(F)F)c3n2)CCO1 (stereo partly drawn) [I-674] | > 200 nM | < 10 nM
COc1ccc2c(c1N1CC(CN3CCN(C[C@H]4CC[C@H](n5cc(NC(=O)c6cnn7ccc(N8C[C@H]9C[C@@H]8CO9)nc67)c(C(F)F)n5)CC4)CC3)C1)n(C)c(=O)n2C1CCC(=O)NC1=O (stereo partly drawn) [I-675] | > 200 nM | < 10 nM
C[C@@H]1CN(c2ccn3ncc(C(=O)Nc4cn([C@H]5CC[C@H](CN6CCN(CC7CN(c8cccc9c8n(C)c(=O)n9C8CCC(=O)NC8=O)C7)CC6)CC5)nc4C(F)F)c3n2)CCO1 (stereo partly drawn) [I-680] | > 200 nM | < 10 nM
Cn1c(=O)n(C2CCC(=O)NC2=O)c2cccc(C3CN([C@@H]4CCN(C[C@H]5CC[C@H](n6cc(NC(=O)c7cnn8ccc(N9C[C@H]%10C[C@@H]9CO%10)nc78)c(C(F)F)n6)CC5)C[C@H]4F)C3)c21 (stereo partly drawn) [I-681] | > 200 nM | < 10 nM
Cn1c(=O)n(C2CCC(=O)NC2=O)c2cccc(C3CN(C4CCN(C[C@H]5CC[C@H](n6cc(NC(=O)c7cnn8ccc(N9C[C@H]%10C[C@@H]9CO%10)nc78)c(C(F)F)n6)CC5)CC4(F)F)C3)c21 (stereo partly drawn) [I-682] | > 200 nM | < 10 nM
Cn1c(=O)n(C2CCC(=O)NC2=O)c2cccc(N3CCN([C@@H]4CCN(C[C@H]5CC[C@H](n6cc(NC(=O)c7cnn8ccc(N9C[C@H]%10C[C@@H]9CO%10)nc78)c(C(F)F)n6)CC5)C[C@H]4F)CC3)c21 (stereo partly drawn) [I-683] | > 200 nM | < 10 nM
Cn1c(=O)n(C2CCC(=O)NC2=O)c2cccc(N3CCN(C[C@]4(O)CC[C@@H](n5cc6cc(NC(=O)c7cccc(C(F)(F)F)n7)ccc6n5)CC4)CC3)c21 (stereo partly drawn) [I-684] | > 200 nM | < 10 nM
COc1ccc2c(c1N1CCN(CC3CCC(n4cc5cc(NC(=O)c6cccc(C#N)n6)ccc5n4)CC3)CC1)n(C)c(=O)n2C1CCC(=O)NC1=O (stereo not drawn) [I-687] | > 200 nM | < 10 nM
Cn1c(=O)n(C2CCC(=O)NC2=O)c2cccc(C3COC4(C3)CN(C[C@H]3CC[C@H](n5cc6cc(NC(=O)c7cccc(C(F)(F)F)n7)ncc6n5)CC3)C4)c21 (stereo partly drawn) [I-688] | > 200 nM | < 10 nM
Cn1c(=O)n(C2CCC(=O)NC2=O)c2cccc(C3COC4(C3)CN(C[C@H]3CC[C@H](n5cc6cc(NC(=O)c7cccc(C(F)(F)F)n7)ccc6n5)CC3)C4)c21 (stereo partly drawn) [I-689] | > 200 nM | < 10 nM
Cn1c(=O)n(C2CCC(=O)NC2=O)c2cccc([C@@H]3CCN(C[C@]4(O)CC[C@@H](n5cc6cc(NC(=O)c7cccc(C(F)(F)F)n7)ccc6n5)CC4)C[C@H]3F)c21 (stereo partly drawn) [I-690] | > 200 nM | < 10 nM
Cc1cccc(C(=O)Nc2cc3cn([C@H]4CC[C@H](CN5CCN(c6c(F)ccc7c6n(C)c(=O)n7C6CCC(=O)NC6=O)CC5)CC4)nc3cn2)n1 (stereo partly drawn) [I-695] | > 200 nM | < 10 nM
CN(c1cccc2c1n(C)c(=O)n2C1CCC(=O)NC1=O)C1CN(C[C@H]2CC[C@H](n3cc4cc(NC(=O)c5cccc(C(F)(F)F)n5)ncc4n3)CC2)C1 (stereo partly drawn) [I-698] | > 200 nM | > 200 nM

Continued, values first:

DC50 [1] | DC50 [2] | Structure (SMILES)
> 200 nM |  | Cn1c(=O)n(C2CCC(=O)NC2=O)c2cccc(N3CCN(CC4COC5(C4)CN(C[C@H]4CC[C@H](n6cc7cc(NC(=O)c8cccc(C(F)(F)F)n8)ncc7n6)CC4)C5)CC3)c21 (stereo partly drawn) [I-666]
> 200 nM | > 200 nM | Cn1c(=O)n(C2CCC(=O)NC2=O)c2cccc(C3CCN(CC4COC5(C4)CN(C[C@H]4CC[C@H](n6cc7cc(NC(=O)c8cccc(C(F)(F)F)n8)c(C(C)(C)O)cc7n6)CC4)C5)CC3)c21 (stereo partly drawn) [I-667]
> 200 nM | < 10 nM | Cn1c(=O)n(C2CCC(=O)NC2=O)c2cccc(N3CC4(CCN(C[C@H]5CC[C@H](n6cc(NC(=O)c7cnn8ccc(N9C[C@H]%10C[C@@H]9CO%10)nc78)c(C(F)F)n6)CC5)CC4(F)F)C3)c21 (stereo partly drawn) [I-669]
> 200 nM | < 10 nM | Cn1c(=O)n(C2CCC(=O)NC2=O)c2cccc(OC3CC(N4CCN(C[C@H]5CC[C@H](n6cc(NC(=O)c7cnn8ccc(N9C[C@H]%10C[C@@H]9CO%10)nc78)c(C(F)F)n6)CC5)CC4)C3)c21 (stereo partly drawn) [I-670]
> 200 nM | < 10 nM | Cn1c(=O)n(C2CCC(=O)NC2=O)c2cccc(C3CN([C@H]4CCN(C[C@H]5CC[C@H](n6cc7cc(NC(=O)c8cccc(C(F)(F)F)n8)ccc7n6)CC5)C[C@@H]4F)C3)c21 (stereo partly drawn) [I-671]
> 200 nM | < 10 nM | Cn1c(=O)n(C2CCC(=O)NC2=O)c2cccc(C3CN([C@H]4CCN(C[C@H]5CC[C@H](n6cc7cc(NC(=O)c8cccc(C(F)(F)F)n8)ncc7n6)CC5)C[C@@H]4F)C3)c21 (stereo partly drawn) [I-672]
> 200 nM | < 10 nM | Cn1c(=O)n(C2CCC(=O)NC2=O)c2cccc(C3CN([C@@H]4CCN(C[C@H]5CC[C@H](n6cc(NC(=O)c7cnn8ccc(N9C[C@H]%10C[C@@H]9CO%10)nc78)c(C(F)F)n6)CC5)C[C@@H]4F)C3)c21 (stereo partly drawn) [I-673]
> 200 nM | < 10 nM | Cn1c(=O)n(C2CCC(=O)NC2=O)c2ccc(F)c(N3CC(CN4CCN(C[C@H]5CC[C@H](n6cc(NC(=O)c7cnn8ccc(N9C[C@H]%10C[C@@H]9CO%10)nc78)c(C(F)F)n6)CC5)CC4)C3)c21 (stereo partly drawn) [I-676]
> 200 nM | < 10 nM | Cn1c(=O)n(C2CCC(=O)NC2=O)c2cccc(N3CCN(C[C@]4(O)CC[C@@H](n5cc6cc(NC(=O)c7cccc(C(F)(F)F)n7)ncc6n5)CC4)CC3)c21 (stereo partly drawn) [I-677]
> 200 nM | < 10 nM | Cn1c(=O)n(C2CCC(=O)NC2=O)c2cccc(N3CC(F)(CN4CCN(C[C@H]5CC[C@H](n6cc(NC(=O)c7cnn8ccc(N9C[C@H]%10C[C@@H]9CO%10)nc78)c(C(F)F)n6)CC5)CC4)C3)c21 (stereo partly drawn) [I-678]
> 200 nM | < 10 nM | Cn1c(=O)n(C2CCC(=O)NC2=O)c2cccc(N3CCN([C@@H]4CCN(C[C@H]5CC[C@H](n6cc(NC(=O)c7cnn8ccc(N9C[C@H]%10C[C@@H]9CO%10)nc78)c(C(F)F)n6)CC5)C[C@@H]4F)CC3)c21 (stereo partly drawn) [I-679]
> 200 nM | < 10 nM | Cn1c(=O)n(C2CCC(=O)NC2=O)c2cccc(N3CCN(C[C@H]4CC[C@H](n5cc6cc(NC(=O)c7cccc(C#N)n7)ccc6n5)CC4)CC3)c21 (stereo partly drawn) [I-685]
> 200 nM | 10 to 100 nM | Cn1c(=O)n(C2CCC(=O)NC2=O)c2ccc(F)c(N3CCN(C[C@H]4CC[C@H](n5cc6cc(NC(=O)c7cccc(C#N)n7)ccc6n5)CC4)CC3)c21 (stereo partly drawn) [I-686]
> 200 nM | > 200 nM | Cn1c(=O)n(C2CCC(=O)NC2=O)c2cccc(C#CCOC3CCN(C[C@H]4CC[C@@H](c5ccc(C(F)F)c(NC(=O)c6cnn7ccc(N8C[C@H]9C[C@@H]8CO9)nc67)c5)CC4)CC3)c21 (stereo partly drawn) [I-691]
> 200 nM | < 10 nM | Cc1cccc(C(=O)Nc2cc3cn([C@H]4CC[C@H](CN5CCN(c6cccc7c6n(C)c(=O)n7C6CCC(=O)NC6=O)CC5)CC4)nc3cn2)n1 (stereo partly drawn) [I-692]
> 200 nM | < 10 nM | Cn1c(=O)n(C2CCC(=O)NC2=O)c2cccc(N3CCN(C[C@H]4CC[C@H](n5cc6cc(NC(=O)c7cccc(C(F)F)n7)ncc6n5)CC4)CC3)c21 (stereo partly drawn) [I-693]
> 200 nM | < 10 nM | Cn1c(=O)n(C2CCC(=O)NC2=O)c2ccc(F)c(N3CCN(C[C@H]4CC[C@H](n5cc6cc(NC(=O)c7cccc(C(F)(F)F)n7)ncc6n5)CC4)CC3)c21 (stereo partly drawn) [I-694]
> 200 nM | < 10 nM | Cn1c(=O)n(C2CCC(=O)NC2=O)c2cccc(OC3CN(C[C@H]4CC[C@H](n5cc6cc(NC(=O)c7cccc(C(F)(F)F)n7)c(C(C)(C)O)cc6n5)CC4)C3)c21 (stereo partly drawn) [I-696]
> 200 nM | < 10 nM | CN(c1cccc2c1n(C)c(=O)n2C1CCC(=O)NC1=O)C1CN(C[C@H]2CC[C@H](n3cc(NC(=O)c4cnn5ccc(N6C[C@H]7C[C@@H]6CO7)nc45)c(C(F)F)n3)CC2)C1 (stereo partly drawn) [I-697]
> 200 nM | > 200 nM | CN(c1cccc2c1n(C)c(=O)n2C1CCC(=O)NC1=O)C1CN(C[C@H]2CC[C@H](n3cc4cc(NC(=O)c5cccc(C(F)(F)F)n5)ccc4n3)CC2)C1 (stereo partly drawn) [I-699]
